Legend:
Assay type in all cases: cell-based
[1] = target: T1, guinea pig KV7.1/KCNE1 (Cavia porcellus, UniProt A6Y9U2+Q60409); experiment: two-electrode voltage clamp, Xenopus oocytes, change of Gmax; conditions: 3 µM; inhibition; EC50 fit ambiguous; pH 7.4, about 20 °C; ethanol vehicle
T1 construct: gene KCNQ1; wild-type KV7.1 and KCNE1 cRNAs co-injected in Xenopus laevis oocytes; KCNE1 in excess; four KV7.1 with one to four KCNE1
Text: two-electrode voltage clamp, Xenopus oocytes, change of Gmax on guinea pig KV7.1/KCNE1

[2] = target: T2, human KV7.1/KCNE1 (tested as KV7.1/KCNE1_K69Q) (Homo sapiens, UniProt P15382+P51787, P15382:K69Q); experiment: two-electrode voltage clamp, Xenopus oocytes, reduction of Gmax
T2 construct: gene KCNQ1; KV7.1 and KCNE1 cRNAs co-injected in Xenopus laevis oocytes; KCNE1 in excess; four KV7.1 with one to four KCNE1
T2 sequence (P51787 whole entry): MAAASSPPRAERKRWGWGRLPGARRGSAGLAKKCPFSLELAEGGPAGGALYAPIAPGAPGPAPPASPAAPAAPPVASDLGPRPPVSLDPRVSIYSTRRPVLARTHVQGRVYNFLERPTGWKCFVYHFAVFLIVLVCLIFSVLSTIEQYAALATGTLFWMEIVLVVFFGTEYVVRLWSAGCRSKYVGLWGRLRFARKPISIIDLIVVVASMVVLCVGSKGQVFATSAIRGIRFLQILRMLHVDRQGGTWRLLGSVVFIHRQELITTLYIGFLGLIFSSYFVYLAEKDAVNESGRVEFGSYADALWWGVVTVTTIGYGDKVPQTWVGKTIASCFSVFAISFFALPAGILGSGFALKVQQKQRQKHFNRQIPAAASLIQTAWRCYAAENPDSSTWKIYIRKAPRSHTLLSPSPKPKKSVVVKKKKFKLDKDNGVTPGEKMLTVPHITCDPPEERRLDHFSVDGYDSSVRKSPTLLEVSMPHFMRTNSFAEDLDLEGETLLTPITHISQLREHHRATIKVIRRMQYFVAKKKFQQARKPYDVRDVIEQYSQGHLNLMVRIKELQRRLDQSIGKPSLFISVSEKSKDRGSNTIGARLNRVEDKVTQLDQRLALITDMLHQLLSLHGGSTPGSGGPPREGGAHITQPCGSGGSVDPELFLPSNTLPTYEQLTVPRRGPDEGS

[3] = target: T3, human KV7.1/rabbit KCNE1 (Homo sapiens; Oryctolagus cuniculus, UniProt P51787+Q28705); experiment: two-electrode voltage clamp, Xenopus oocytes, change of Gmax; conditions: 10 µM; inhibition; EC50 fit ambiguous; pH 7.4, about 20 °C; ethanol vehicle
T3 construct: gene KCNQ1; cross-species complex of two intact wild-type subunits (no fusion): human KV7.1 and rabbit KCNE1 cRNAs co-injected in Xenopus laevis oocytes
T3 sequence (P51787 whole entry, the tested form may be a part): as the sequence (P51787 whole entry) above
T3 sequence (Q28705 whole entry, the tested form may be a part): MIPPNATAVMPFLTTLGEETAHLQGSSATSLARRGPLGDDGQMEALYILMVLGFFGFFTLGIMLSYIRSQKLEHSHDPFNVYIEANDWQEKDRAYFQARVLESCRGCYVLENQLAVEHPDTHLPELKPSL
Text: two-electrode voltage clamp, Xenopus oocytes, change of Gmax on human KV7.1/rabbit KCNE1

[4] = target: T4, rabbit KV7.1/human KCNE1 (Oryctolagus cuniculus; Homo sapiens, UniProt P15382+Q9MYS6); experiment: as above; conditions: 10 µM; inhibition; EC50 fit ambiguous; pH 7.4, about 20 °C; ethanol vehicle
T4 construct: gene KCNQ1; cross-species complex of two intact wild-type subunits (no fusion): rabbit KV7.1 and human KCNE1 cRNAs co-injected in Xenopus laevis oocytes
T4 sequence (Q9MYS6 whole entry, the tested form may be a part): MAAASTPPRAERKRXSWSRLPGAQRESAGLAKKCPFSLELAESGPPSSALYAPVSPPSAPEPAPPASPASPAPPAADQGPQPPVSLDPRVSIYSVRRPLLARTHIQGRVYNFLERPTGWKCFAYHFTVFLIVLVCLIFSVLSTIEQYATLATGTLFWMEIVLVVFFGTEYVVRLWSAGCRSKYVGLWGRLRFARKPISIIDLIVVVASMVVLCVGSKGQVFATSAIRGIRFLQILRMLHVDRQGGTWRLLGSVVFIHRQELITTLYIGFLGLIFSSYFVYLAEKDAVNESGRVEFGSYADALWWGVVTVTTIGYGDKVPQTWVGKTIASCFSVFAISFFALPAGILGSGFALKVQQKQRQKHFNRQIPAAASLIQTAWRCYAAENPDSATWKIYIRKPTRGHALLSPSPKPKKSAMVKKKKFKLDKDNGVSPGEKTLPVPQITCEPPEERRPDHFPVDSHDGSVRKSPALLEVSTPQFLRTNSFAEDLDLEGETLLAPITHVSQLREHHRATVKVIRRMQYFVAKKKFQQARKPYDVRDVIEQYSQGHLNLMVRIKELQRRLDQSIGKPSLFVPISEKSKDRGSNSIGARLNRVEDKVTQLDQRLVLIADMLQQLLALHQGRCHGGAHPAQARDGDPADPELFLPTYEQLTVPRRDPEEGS
Text: two-electrode voltage clamp, Xenopus oocytes, change of Gmax on rabbit KV7.1/human KCNE1

[5] = target: T5, rabbit KV7.1/KCNE1 (Oryctolagus cuniculus, UniProt Q28705+Q9MYS6); experiment: two-electrode voltage clamp, Xenopus oocytes, reduction of Gmax
T5 construct: gene KCNQ1; wild-type KV7.1 and KCNE1 cRNAs co-injected in Xenopus laevis oocytes; KCNE1 in excess; four KV7.1 with one to four KCNE1
T5 sequence (Q9MYS6 whole entry): as the sequence (Q9MYS6 whole entry, the tested form may be a part) above
T5 sequence (Q28705 whole entry): as the sequence (Q28705 whole entry, the tested form may be a part) above

ΔG max [1]: −37.8 ± 3.7 (SEM) %
EC50 [2]: 2.9 µM
ΔG max [3]: −77.8 ± 6.2 (SEM) %
ΔG max [4]: −91.9 ± 3.0 (SEM) %
EC50 [5]: 0.23 µM
SMILES: C[C@]12CC[C@@H]3c4ccc(O)cc4CC[C@H]3[C@@H]1CC[C@@H]2O [17β‐E2]

Source: publication PMC12756865, “Inhibitory effect of oestradiol on the cardiac KV7.1/KCNE1 channel is species dependent” (Experimental Physiology, 2025)
